In brackets after ≈: the same amount, converted by molar mass. Activity calls are given as the source filed them. No cut-off for these calls is given here.
What was measured:
[1] = target: T1, Cytochrome P450 3A4 (Homo sapiens, UniProt P08684); assay: Inhibition of CYP3A4 in human liver microsomes using testosterone as substrate incubated for 30 mins by LC-MS/MS analysis; format: ADME
[2] = Metabolic stability in CD1 mouse liver microsomes assessed as compound degradation in presence of NADPH measured after 20 mins; format: ADME, Microsome; conditions: read-out: Drug degradation
[3] = target: T2, Serine/threonine-protein kinase Sgk1 (Homo sapiens, UniProt O00141); assay: Inhibition of recombinant human SGK1 expressed in baculovirus expression system using 5-carboxyfluorescein -RPRAATF-NH2 as substrate preincubated for 30 mins followed by substrate addition in presence of 10 uM ATP and measured after 60 mins by microfluidics assay
T2 sequence (O00141 whole entry): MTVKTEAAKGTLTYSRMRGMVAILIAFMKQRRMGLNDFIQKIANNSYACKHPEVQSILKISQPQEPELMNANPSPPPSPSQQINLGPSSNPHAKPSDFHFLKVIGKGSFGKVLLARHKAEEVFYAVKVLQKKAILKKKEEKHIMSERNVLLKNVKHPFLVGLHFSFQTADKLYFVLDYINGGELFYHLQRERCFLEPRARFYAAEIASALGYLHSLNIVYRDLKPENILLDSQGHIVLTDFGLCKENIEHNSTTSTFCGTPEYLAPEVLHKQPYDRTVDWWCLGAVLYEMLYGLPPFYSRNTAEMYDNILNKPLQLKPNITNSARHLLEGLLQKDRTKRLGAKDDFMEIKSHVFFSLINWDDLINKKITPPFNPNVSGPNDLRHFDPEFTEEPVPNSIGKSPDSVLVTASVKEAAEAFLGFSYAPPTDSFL

[4] = target: T2, Serine/threonine-protein kinase Sgk1; assay: Inhibition of recombinant human SGK1 expressed in baculovirus expression system using 5-carboxyfluorescein -RPRAATF-NH2 as substrate preincubated for 30 mins followed by substrate addition in presence of 500 uM ATP and measured after 60 mins by microfluidics assay
[5] = target: T3, Serine/threonine-protein kinase Sgk2 (Homo sapiens, UniProt Q9HBY8); assay: Inhibition of human SGK2 in presence 500 uM presence of ATP
T3 sequence (Q9HBY8 whole entry): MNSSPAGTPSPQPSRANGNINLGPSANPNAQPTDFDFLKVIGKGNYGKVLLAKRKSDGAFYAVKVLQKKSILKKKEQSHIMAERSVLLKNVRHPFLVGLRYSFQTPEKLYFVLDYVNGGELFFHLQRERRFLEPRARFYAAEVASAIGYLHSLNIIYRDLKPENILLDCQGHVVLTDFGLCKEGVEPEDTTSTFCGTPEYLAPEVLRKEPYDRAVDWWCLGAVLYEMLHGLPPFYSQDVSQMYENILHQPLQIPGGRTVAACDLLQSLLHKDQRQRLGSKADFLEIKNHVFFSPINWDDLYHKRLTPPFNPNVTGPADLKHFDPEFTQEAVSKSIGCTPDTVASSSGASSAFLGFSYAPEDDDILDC

[6] = target: T4, Serine/threonine-protein kinase Sgk3 (Homo sapiens, UniProt Q96BR1); assay: Inhibition of human SGK3 in presence 500 uM presence of ATP
T4 sequence (Q96BR1 whole entry): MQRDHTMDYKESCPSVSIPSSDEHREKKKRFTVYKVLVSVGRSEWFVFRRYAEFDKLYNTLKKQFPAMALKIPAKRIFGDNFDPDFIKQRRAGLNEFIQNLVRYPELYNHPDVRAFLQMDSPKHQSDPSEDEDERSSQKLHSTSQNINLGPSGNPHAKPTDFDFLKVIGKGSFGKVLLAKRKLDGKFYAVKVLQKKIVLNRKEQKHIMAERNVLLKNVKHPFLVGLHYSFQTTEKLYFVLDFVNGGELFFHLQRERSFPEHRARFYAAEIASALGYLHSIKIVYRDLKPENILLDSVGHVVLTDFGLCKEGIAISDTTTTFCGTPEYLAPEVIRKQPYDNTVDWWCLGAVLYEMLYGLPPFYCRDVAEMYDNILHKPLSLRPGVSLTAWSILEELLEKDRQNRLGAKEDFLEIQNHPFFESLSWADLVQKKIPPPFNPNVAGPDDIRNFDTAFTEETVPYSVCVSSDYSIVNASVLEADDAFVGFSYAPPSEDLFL

[7] = target: T5, Serine/threonine-protein kinase Sgk1 (Mus musculus, UniProt Q9WVC6); assay: Inhibition of mouse SGK1 in presence 500 uM presence of ATP
T5 sequence (Q9WVC6 whole entry): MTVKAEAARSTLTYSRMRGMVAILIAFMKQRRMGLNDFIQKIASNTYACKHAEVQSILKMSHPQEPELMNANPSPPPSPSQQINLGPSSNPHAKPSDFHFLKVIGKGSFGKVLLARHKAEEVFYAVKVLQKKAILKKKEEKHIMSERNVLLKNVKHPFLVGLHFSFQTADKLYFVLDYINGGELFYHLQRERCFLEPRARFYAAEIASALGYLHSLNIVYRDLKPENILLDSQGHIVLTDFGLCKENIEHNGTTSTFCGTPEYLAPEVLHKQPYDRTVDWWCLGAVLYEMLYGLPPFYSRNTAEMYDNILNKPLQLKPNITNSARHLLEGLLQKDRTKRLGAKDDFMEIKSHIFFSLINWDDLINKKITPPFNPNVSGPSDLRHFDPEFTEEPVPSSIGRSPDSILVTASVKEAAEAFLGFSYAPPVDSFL

[8] = Inhibition of rat SGK1 in presence 500 uM presence of ATP
[9] = Distribution coefficient, logD of compound at pH 7.4 by chromatographic analysis; format: physicochemical; conditions: octanol/water
[10] = Aqueous solubility of the compound at pH 7.4; format: physicochemical
[11] = Effect on chondrocyte hypertrophic differentiation mouse ATDC-5 cells assessed as inhibition of […] gene expression incubated for 2 weeks followed by compound added and every 3 days medium is changed measured after 2 weeks by RT-qPCR analysis; format: functional, cell-based
[12] = Permeability in human Caco2 cells at 20 uM incubated for 120 mins by ESI-MS/MS analysis; format: ADME, cell-based; conditions: Caco-2, read-out: permeability
[13] = Chemical stability of the compound at pH 7.4 measured after 24 hrs; format: physicochemical; conditions: buffer, read-out: Stability
[14] = Metabolic stability in human liver microsomes assessed as compound degradation in presence of NADPH measured after 20 mins; format: ADME, Microsome; conditions: read-out: Drug degradation
[15] = Metabolic stability in Sprague-Dawley rat liver microsomes assessed as compound degradation in presence of NADPH measured after 20 mins; format: ADME, Microsome; conditions: read-out: Drug degradation
[16] = Intrinsic clearance in human hepatocytes assessed per 10^-6 cells; format: ADME, cell-based, Hepatocyte
[17] = target: T1, Cytochrome P450 3A4; assay: Inhibition of CYP3A4 in human liver microsomes using midazolam as substrate incubated for 10 mins by LC-MS/MS analysis; format: ADME
[18] = target: CYP3A4 (Homo sapiens, UniProt P08684); assay: Inhibition of CYP3A4 in human liver microsomes by measuring maximum efficacy; format: ADME
CYP3A4, sequence (P08684 whole entry): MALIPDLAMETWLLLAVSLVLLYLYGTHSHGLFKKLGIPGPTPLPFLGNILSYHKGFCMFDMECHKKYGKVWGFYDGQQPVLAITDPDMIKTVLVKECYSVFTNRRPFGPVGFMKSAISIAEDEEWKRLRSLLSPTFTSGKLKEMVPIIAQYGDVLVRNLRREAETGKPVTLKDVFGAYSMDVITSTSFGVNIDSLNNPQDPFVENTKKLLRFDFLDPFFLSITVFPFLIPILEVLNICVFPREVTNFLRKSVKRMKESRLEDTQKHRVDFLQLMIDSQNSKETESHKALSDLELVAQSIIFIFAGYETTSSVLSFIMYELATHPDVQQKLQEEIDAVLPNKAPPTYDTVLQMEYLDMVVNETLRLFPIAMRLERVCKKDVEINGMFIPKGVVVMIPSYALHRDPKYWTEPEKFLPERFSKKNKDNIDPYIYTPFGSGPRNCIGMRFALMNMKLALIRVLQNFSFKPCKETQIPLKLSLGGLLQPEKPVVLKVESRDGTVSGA

[19] = target: T6, hERG (KCNH2) (Homo sapiens, UniProt Q12809); assay: Inhibition of human ERG at 1 uM relative to control; format: toxicity
T6 sequence (Q12809 whole entry): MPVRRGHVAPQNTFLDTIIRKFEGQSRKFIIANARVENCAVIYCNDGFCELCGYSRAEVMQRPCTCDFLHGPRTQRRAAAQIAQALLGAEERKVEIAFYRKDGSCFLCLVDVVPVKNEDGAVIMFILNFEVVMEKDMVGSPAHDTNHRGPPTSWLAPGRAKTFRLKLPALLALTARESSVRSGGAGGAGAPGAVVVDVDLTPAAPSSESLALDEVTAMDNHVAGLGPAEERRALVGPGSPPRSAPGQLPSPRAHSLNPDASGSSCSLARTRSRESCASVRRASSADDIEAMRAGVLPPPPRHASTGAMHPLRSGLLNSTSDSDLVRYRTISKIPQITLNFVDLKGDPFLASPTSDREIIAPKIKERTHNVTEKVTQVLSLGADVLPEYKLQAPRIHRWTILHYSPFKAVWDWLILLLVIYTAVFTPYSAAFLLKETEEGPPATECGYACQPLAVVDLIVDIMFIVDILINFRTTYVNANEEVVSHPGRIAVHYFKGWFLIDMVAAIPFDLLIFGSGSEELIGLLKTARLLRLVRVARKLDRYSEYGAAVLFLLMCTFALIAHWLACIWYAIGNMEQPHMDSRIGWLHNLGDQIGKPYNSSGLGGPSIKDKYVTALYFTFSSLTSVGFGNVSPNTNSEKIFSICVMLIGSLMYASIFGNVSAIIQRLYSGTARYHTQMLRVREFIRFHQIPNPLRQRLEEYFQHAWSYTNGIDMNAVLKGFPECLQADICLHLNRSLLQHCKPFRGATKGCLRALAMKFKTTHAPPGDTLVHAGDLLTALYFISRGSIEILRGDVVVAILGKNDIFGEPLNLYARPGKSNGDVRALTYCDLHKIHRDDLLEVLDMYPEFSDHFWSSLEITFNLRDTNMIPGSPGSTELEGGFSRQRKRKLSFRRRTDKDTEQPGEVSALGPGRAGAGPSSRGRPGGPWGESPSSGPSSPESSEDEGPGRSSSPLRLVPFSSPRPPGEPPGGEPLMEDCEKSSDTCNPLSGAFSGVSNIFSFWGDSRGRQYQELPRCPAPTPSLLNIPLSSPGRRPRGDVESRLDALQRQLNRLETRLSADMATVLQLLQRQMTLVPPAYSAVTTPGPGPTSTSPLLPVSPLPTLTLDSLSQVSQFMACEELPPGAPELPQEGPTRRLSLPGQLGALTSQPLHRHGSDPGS

[20] = target: T6, hERG (KCNH2); assay: Inhibition of human ERG at 10 uM; format: toxicity
[21] = Cmax in Sprague-Dawley rat plasma at 30 mg/kg, po; format: ADME, organism-based; parameters: route oral, dose 30 mg/kg
[22] = Tmax in Sprague-Dawley rat plasma at 30 mg/kg, po; format: ADME, organism-based
[23] = Half life in Sprague-Dawley rat plasma at 30 mg/kg, po; format: ADME, organism-based
[24] = AUC (0 to 24 hrs) in Sprague-Dawley rat plasma at 30 mg/kg, po; format: ADME, organism-based; parameters: time < 24 hr, route oral, dose 30 mg/kg
[25] = test system: Salmonella typhimurium; assay: Mutagenicity in Salmonella typhimurium […] in presence of S9 fraction by ames test; format: toxicity, organism-based; conditions: salmonella enterica subsp. enterica serovar typhimurium
[26] = Cmax in Lewis rat plasma at 30 mg/kg, po measured after 8 hrs; format: ADME, organism-based; parameters: route oral, time 8 hrs, dose 30 mg/kg
[27] = Tmax in Lewis rat plasma at 30 mg/kg, po measured after 8 hrs; format: ADME, organism-based
[28] = AUC (0 to 24 hrs) in Lewis rat plasma at 30 mg/kg, po measured after 8 hrs; format: ADME, organism-based; parameters: route oral, dose 30 mg/kg, time 8 hrs
[29] = Cmax in Lewis rat femoral head cartilage at 30 mg/kg, po measured after 8 hrs; format: ADME, organism-based, Femur; parameters: route oral, time 8 hrs, dose 30 mg/kg
[30] = Tmax in Lewis rat femoral head cartilage at 30 mg/kg, po measured after 8 hrs; format: ADME, organism-based, Femur
[31] = AUC (0 to 24 hrs) in Lewis rat femoral head cartilage at 30 mg/kg, po measured after 8 hrs; format: ADME, organism-based, Femur; parameters: route oral, dose 30 mg/kg, time 8 hrs
[32] = Ratio of AUC(0 to 24 hrs) in femoral head to plasma in rat measured after 2 hrs; format: ADME, Bone/Plasma; conditions: read-out: Selectivity ratio
[33] = test system: Femur; assay: Induction of chondrogenesis in femoral head cartilage isolated from C57BL/6 mouse model of osteoarthritis assessed as reduction in intensity of collagen type x staining incubated for 2 weeks in hypertrophic condition and twice for week medium is changed by immunohistochemical staining based analysis; format: functional, tissue-based

T1 sequence (P08684 whole entry): as the sequence (P08684 whole entry) above

- IC50 [1]: > 30000 nM
- metabolised at 20 min [2]: 3%
- IC50 [3]: 3 nM
- IC50 [4]: 9 nM
- IC50 [5]: 21 nM
- IC50 [6]: 211 nM
- IC50 [7]: 294 nM
- IC50 [8]: 303 nM
- chromatographic logD [9]: 1.13
- solubility [10]: 58 µg/mL (≈ 136 µM)
- Papp at 2 h, 20 µM [12]: 1.5 ×10⁻⁶ cm/s
- remaining at 24 h [13]: 100%
- metabolised at 20 min [14]: 3%
- metabolised at 20 min [15]: 2%
- CLH [16]: 0.005 mL/h
- IC50 [17]: > 30000 nM
- Emax [18]: 17%
- Cmax [21]: 10600 ng/mL
- Tmax [22]: 4 h
- half-life [23]: 2.8 h
- AUC(0-t) at 24 h [24]: 110000 ng·h/mL
- Cmax [26]: 2970 ng/mL
- Tmax [27]: 4 h
- AUC(0-t) at 8 h [28]: 33000 ng·h/mL
- Cmax [29]: 890 ng/mL
- Tmax [30]: 2 h
- AUC(0-t) at 8 h [31]: 5200 ng·h/mL
SMILES: N#Cc1ccc(Cl)cc1S(=O)(=O)Nc1ccc(-c2ncc3c(N)n[nH]c3n2)cc1
- IC50 [11]: 550 nM
- inhibition at 1 µM [19]: 0%
- inhibition at 10 µM [20]: 11%
- Activity [25]: Non-Toxic
- Kp at 2 h [32]: 0.047
- Activity [33]: Active

Reference: ChEMBL document CHEMBL5042500 (J Med Chem, 2022)
